The values below come from patent publication US20180318311A1, “TRICYCLIC 2-QUINOLINONES AS ANTIBACTERIALS” (priority 2017, published 2018).

What all share (format): cell-based
Assay [1] concerns S. pneumoniae ATCC 25922 (NB07001). As to the kind of experiment: MIC by broth microdilution, S. pneumoniae NB07001. The conditions noted are these: Streptococcus pneumoniae, ATCC25922, 20 h, read-out: Antibacterial activity (MIC) NB07001. Summed up:
(§1)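 MIC in μg/mL taken as the lowest concentration with no visible growth, checked by 600 nm reading after 20 h at 35°C, ambient air. Strains tested per CLSI microdilution in cation-adjusted Mueller-Hinton broth at about 5×10^5 CFU/mL, compounds as two-fold series, 1% DMSO final.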
For orientation: Dilution methods test growth across graded concentrations, often in twofold steps.

The test system of assay [2] is E. faecalis ATCC 29212 (NB04001). As to the kind of experiment: MIC by broth microdilution, E. faecalis NB04001. The conditions noted are these: Enterococcus faecalis, ATCC29212, CAMHB, 35° C., 20 hours, read-out: Antibacterial activity (MIC) NB04001. The gist of the method:
as §1

Assay [3] deals with S. aureus NB01080 fluoroquinolone-resistant clinical isolate. As to the kind of experiment: MIC by broth microdilution, S. aureus NB01080. The conditions noted are these: Staphylococcus aureus, CAMHB, 35° C., 20 hours, read-out: Antibacterial activity (MIC) NB01080. Summed up: as §1
The test system of assay [4] is S. aureus NB01006-AVR005, gyrA (S84L), grlA (580F) and grlB (E471K). As to the kind of experiment: microbe, parasite or virus in culture. The conditions noted are these: Staphylococcus aureus, 20 h, read-out: Antibacterial activity (MIC) NB01006-AVR005. The gist of the method:
as §1

In assay [5] the test system is S. aureus ATCC 49951 (NB01006). As to the kind of experiment: MIC by broth microdilution, S. aureus NB01006. Particulars: Staphylococcus aureus, ATCC49951, CAMHB, 35° C., 20 hours, read-out: Antibacterial activity (MIC) NB01006. Summed up:
as §1

Assay [6] concerns E. coli ATCC 25922 (NB27001). As to the kind of experiment: MIC by broth microdilution, E. coli NB27001. The conditions noted are these: Escherichia coli, ATCC25922, CAMHB, 35° C., 20 hours, read-out: Antibacterial activity (MIC) NB27001. Summed up:
as §1

The test system of assay [7] is P. aeruginosa NB52019, wild-type PAO1 strain. As to the kind of experiment: MIC by broth microdilution, P. aeruginosa NB52019. The conditions noted are these: Pseudomonas aeruginosa, CAMHB, 35° C., 20 hours, read-out: Antibacterial activity (MIC) NB52019. The gist of the method: as §1

≈ marks a conversion by molar mass, not a printed value. Bounds are passed on as bounds.

Regarding `CN[C@@H](C)[C@@H]1CCN(c2c(F)cc3cc(C(=O)O)c(=O)n4c3c2OC[C@@H]4C)C1` [Example 1.36, (S)-9-fluoro-3-methyl-10-((R)-3-((S)-1-(methylamino)ethyl)pyrrolidin-1-yl)-5-oxo-2,3-dihydro-5H-[1,4]oxazino[2,3,4-ij]quinoline-6-carboxylic acid], the MIC is under 1 µg/mL in assay [1]; under 1 µg/mL in assay [2]; under 1 µg/mL in assay [3]; 1 to 32 µg/mL (≈ 2.57 to 82.2 µM) in assay [4]; under 1 µg/mL in assay [5]; 1 to 32 µg/mL (≈ 2.57 to 82.2 µM) in assay [6]. Also, the MIC in assay [7] is over 32 µg/mL.
As for `C[C@H]1COc2c(N3CC4CNCC4C3)c(F)cc3cc(C(=O)O)c(=O)n1c23` (stereo partly drawn) [Example 1.37, (3S)-9-fluoro-10-(hexahydropyrrolo[3,4-c]pyrrol-2(1H)-yl)-3-methyl-5-oxo-2,3-dihydro-5H-[1,4]oxazino[2,3,4-ij]quinoline-6-carboxylic acid], the MIC in assay [1], in assay [2], in assay [3], in assay [4], in assay [5] and in assay [6] was over 32 µg/mL each time. Besides, the MIC in assay [7] is over 32 µg/mL.
As for `CO/N=C1\CN(c2c(F)cc3cc(C(=O)O)c(=O)n4c3c2OC[C@@H]4C)CC1CN` (stereo partly drawn) [Example 1.40, (3S)-10-((Z)-3-(aminomethyl)-4-(methoxyimino)pyrrolidin-1-yl)-9-fluoro-3-methyl-5-oxo-2,3-dihydro-5H-[1,4]oxazino[2,3,4-ij]quinoline-6-carboxylic acid], the MIC was under 1 µg/mL in assay [1]; 1 to 32 µg/mL (≈ 2.47 to 79.1 µM) in assay [2]; 1 to 32 µg/mL (≈ 2.47 to 79.1 µM) in assay [3]; 1 to 32 µg/mL (≈ 2.47 to 79.1 µM) in assay [4]; 1 to 32 µg/mL (≈ 2.47 to 79.1 µM) in assay [5]; 1 to 32 µg/mL (≈ 2.47 to 79.1 µM) in assay [6]. For the same compound, the MIC in assay [7] is over 32 µg/mL.
For `CNC[C@@H]1CCN(c2c(F)cc3cc(C(=O)O)c(=O)n4c3c2OC[C@@H]4C)C1` [Example 1.41, (S)-9-fluoro-3-methyl-10-((S)-3-((methylamino)methyl)pyrrolidin-1-yl)-5-oxo-2,3-dihydro-5H-[1,4]oxazino[2,3,4-ij]quinoline-6-carboxylic acid], the MIC in assay [1] was under 1 µg/mL; in assay [2] it was 1 to 32 µg/mL (≈ 2.66 to 85.2 µM); in assay [3], 1 to 32 µg/mL (≈ 2.66 to 85.2 µM); in assay [4], 1 to 32 µg/mL (≈ 2.66 to 85.2 µM); in assay [5], under 1 µg/mL; in assay [6], 1 to 32 µg/mL (≈ 2.66 to 85.2 µM). In assay [7], the MIC was over 32 µg/mL.
`CC(O)C1(F)CCN(c2c(F)cc3cc(C(=O)O)c(=O)n4c3c2OC[C@@H]4C)C1` (stereo partly drawn) [Example 1.44, (3S)-9-fluoro-10-(3-fluoro-3-(1-hydroxyethyl)pyrrolidin-1-yl)-3-methyl-5-oxo-2,3-dihydro-5H-[1,4]oxazino[2,3,4-ij]quinoline-6-carboxylic acid]: the MIC in assay [1] is 1 to 32 µg/mL (≈ 2.54 to 81.1 µM); in assay [2], 1 to 32 µg/mL (≈ 2.54 to 81.1 µM); in assay [3], over 32 µg/mL; in assay [4] it was over 32 µg/mL; in assay [5] it was under 1 µg/mL; in assay [6], 1 to 32 µg/mL (≈ 2.54 to 81.1 µM). In addition, in assay [7], the MIC is over 32 µg/mL.
Regarding `C[C@H]1COc2c(N3C[C@H]4[C@@H](C3)S(=O)(=O)C[C@@H]4N)c(F)cc3cc(C(=O)O)c(=O)n1c23` [Example 1.51, (S)-10-((3R,3aR,6aS)-3-amino-1,1-dioxidohexahydro-5H-thieno[2,3-c]pyrrol-5-yl)-9-fluoro-3-methyl-5-oxo-2,3-dihydro-5H-[1,4]oxazino[2,3,4-ij]quinoline-6-carboxylic acid], the MIC in assay [1], in assay [2], in assay [3], in assay [4], in assay [5] and in assay [6] was over 32 µg/mL each time. Also, the MIC in assay [7] is over 32 µg/mL.
Take `C[C@H]1COc2c(N3CC[C@@H]([C@@H](N)C4CC4)C3)c(F)cc3cc(C(=O)O)c(=O)n1c23` [Example 1.52, (S)-10-((R)-3-((S)-amino(cyclopropyl)methyl)pyrrolidin-1-yl)-9-fluoro-3-methyl-5-oxo-2,3-dihydro-5H-[1,4]oxazino[2,3,4-ij]quinoline-6-carboxylic acid]: the MIC in assay [1] is under 1 µg/mL; in assay [2], under 1 µg/mL; in assay [3], under 1 µg/mL; in assay [4], 1 to 32 µg/mL (≈ 2.49 to 79.7 µM); in assay [5], under 1 µg/mL; in assay [6], under 1 µg/mL. In addition, the MIC in assay [7] was over 32 µg/mL.
With `C[C@H]1COc2c(N3CC[C@@H]([C@@H](N)C(F)F)C3)c(F)cc3cc(C(=O)O)c(=O)n1c23` [Example 1.53, (S)-10-((R)-3-((R)-1-amino-2,2-difluoroethyl)pyrrolidin-1-yl)-9-fluoro-3-methyl-5-oxo-2,3-dihydro-5H-[1,4]oxazino[2,3,4-ij]quinoline-6-carboxylic acid], the MIC in assay [1] is under 1 µg/mL; in assay [2], under 1 µg/mL; in assay [3], under 1 µg/mL; in assay [4] it was 1 to 32 µg/mL (≈ 2.43 to 77.8 µM); in assay [5], under 1 µg/mL; in assay [6] it was 1 to 32 µg/mL (≈ 2.43 to 77.8 µM). Also, the MIC in assay [7] is over 32 µg/mL.
Turning to `C[C@H]1COc2c(N3CCCN(CC(F)F)CC3)c(F)cc3cc(C(=O)O)c(=O)n1c23` [Example 1.54, (S)-10-(4-(2,2-difluoroethyl)-1,4-diazepan-1-yl)-9-fluoro-3-methyl-5-oxo-2,3-dihydro-5H-[1,4]oxazino[2,3,4-ij]quinoline-6-carboxylic acid], the MIC was over 32 µg/mL in assay [1]; over 32 µg/mL in assay [2]; over 32 µg/mL in assay [3]; over 32 µg/mL in assay [4]; 1 to 32 µg/mL (≈ 2.35 to 75.2 µM) in assay [5]; over 32 µg/mL in assay [6]. In assay [7], the MIC was over 32 µg/mL.
Consider `C[C@H]1COc2c(N3CCNC4(CC3)CC4)c(F)cc3cc(C(=O)O)c(=O)n1c23` [Example 1.55, (S)-9-fluoro-3-methyl-5-oxo-10-(4,7-diazaspiro[2.6]nonan-7-yl)-2,3-dihydro-5H-[1,4]oxazino[2,3,4-ij]quinoline-6-carboxylic acid], for which the MIC in assay [1] is 1 to 32 µg/mL (≈ 2.58 to 82.6 µM); in assay [2] it was 1 to 32 µg/mL (≈ 2.58 to 82.6 µM); in assay [3], 1 to 32 µg/mL (≈ 2.58 to 82.6 µM); in assay [4], over 32 µg/mL; in assay [5], 1 to 32 µg/mL (≈ 2.58 to 82.6 µM); in assay [6] it was 1 to 32 µg/mL (≈ 2.58 to 82.6 µM). The MIC in assay [7] is over 32 µg/mL.
Regarding `C[C@H]1COc2c(N3CC[C@@H]([C@@H](N)CF)C3)c(F)cc3cc(C(=O)O)c(=O)n1c23` [Example 1.56, (S)-10-((R)-3-((R)-1-amino-2-fluoroethyl)pyrrolidin-1-yl)-9-fluoro-3-methyl-5-oxo-2,3-dihydro-5H-[1,4]oxazino[2,3,4-ij]quinoline-6-carboxylic acid], the MIC in assay [1] was under 1 µg/mL; in assay [2] it was under 1 µg/mL; in assay [3], under 1 µg/mL; in assay [4], 1 to 32 µg/mL (≈ 2.54 to 81.3 µM); in assay [5], under 1 µg/mL; in assay [6] it was under 1 µg/mL. The MIC in assay [7] lay within 1 to 32 µg/mL (≈ 2.54 to 81.3 µM).
Take `C[C@H]1COc2c(N3CCC4(CCCN4C)CC3)c(F)cc3cc(C(=O)O)c(=O)n1c23` [Example 1.57, (S)-9-fluoro-3-methyl-10-(1-methyl-1,8-diazaspiro[4.5]decan-8-yl)-5-oxo-2,3-dihydro-5H-[1,4]oxazino[2,3,4-ij]quinoline-6-carboxylic acid]: the MIC was over 32 µg/mL in assay [1]; over 32 µg/mL in assay [2]; over 32 µg/mL in assay [3]; over 32 µg/mL in assay [4]; over 32 µg/mL in assay [5]; 1 to 32 µg/mL (≈ 2.41 to 77 µM) in assay [6]. Besides, the MIC in assay [7] was over 32 µg/mL.
`C[C@@H]1CN(c2c(F)cc3cc(C(=O)O)c(=O)n4c3c2OC[C@@H]4C)C[C@@]1(C)CN` [Example 1.58, (S)-10-((3R,4S)-3-(aminomethyl)-3,4-dimethylpyrrolidin-1-yl)-9-fluoro-3-methyl-5-oxo-2,3-dihydro-5H-[1,4]oxazino[2,3,4-ij]quinoline-6-carboxylic acid]: the MIC was 1 to 32 µg/mL (≈ 2.57 to 82.2 µM) in assay [1]; 1 to 32 µg/mL (≈ 2.57 to 82.2 µM) in assay [2]; 1 to 32 µg/mL (≈ 2.57 to 82.2 µM) in assay [3]; 1 to 32 µg/mL (≈ 2.57 to 82.2 µM) in assay [4]; under 1 µg/mL in assay [5]; 1 to 32 µg/mL (≈ 2.57 to 82.2 µM) in assay [6]. Also, the MIC in assay [7] was over 32 µg/mL.
Take `C[C@H]1COc2c(N3CC4=C(CNC4)C3)c(F)cc3cc(C(=O)O)c(=O)n1c23` [Example 1.59, (S)-9-fluoro-3-methyl-5-oxo-10-(3,4,5,6-tetrahydropyrrolo[3,4-c]pyrrol-2(1H)-yl)-2,3-dihydro-5H-[1,4]oxazino[2,3,4-ij]quinoline-6-carboxylic acid]: the MIC was 1 to 32 µg/mL (≈ 2.69 to 86.2 µM) in assay [1]; over 32 µg/mL in assay [2]; 1 to 32 µg/mL (≈ 2.69 to 86.2 µM) in assay [3]; over 32 µg/mL in assay [4]; 1 to 32 µg/mL (≈ 2.69 to 86.2 µM) in assay [5]; 1 to 32 µg/mL (≈ 2.69 to 86.2 µM) in assay [6]. Further, in assay [7], the MIC was over 32 µg/mL.
